The record followed here is US20230348419A1, “BIAMINOQUINOLINES AND NANOFORMULATIONS FOR CANCER TREATMENT” (The Regents of the University of California, priority 2019, published 2023).

Where two headings read alike, the source gives them in different places.

Data set [1] can be described thus: Titration with hydrochloric acid (pH buffering capacity). The format is physicochemical. Conditions: 1 mM, 0.1 M HCl.
A further data set relates to MIA PaCa-2 tumours. In words: MIA PaCa-2 xenograft model. Conditions: 20 mg kg^−1 every three days. The format is in vivo, NRG mice. How it is done: In vivo treatment schedule.
Antitumour effect as single agents in mice. After proving the safety of BAQ ONNs, the NPs for anticancer efficacy was evaluated in a pancreatic xenograft model of MIA PaCa-2 cells. NRG mice with MIA PaCa-2 tumours (˜100 mm^3) were randomly assigned into five groups (n=6): the saline (iv) group, the Lys05 (ip) group, the liposomes@Lys05 (iv) group, the BAQ12 NPs (iv) group and the BAQ13 NPs (iv) group. The mice were then treated every three days at a dose of 20 mg kg^−1. […] These findings clearly illustrate the potential advantages of BAQ ONNs with regard to both drug discovery and drug delivery.

The test system of another data set is MIA PaCa-2 cells. Description: RNA sequencing, differentially expressed genes. Conditions: 5 μM, 24 h, vs vehicle. The format is cell-based, human. How it is done: RNA-seq. Total RNA was extracted by the RNeasy Mini Kit (Qiagen, Germany) from the treated MIA PaCa-2 cells (5 μM, 24 h). Samples were submitted to the UC Davis Comprehensive Cancer Center's Genomics Shared Resource (GSR) for RNA-Seq analysis. Stranded RNA-Seq libraries were prepared from 100 ng total RNA using the NEBNext Ultra Directional RNA Library Prep Kit (New England BioLabs). Subsequently, libraries were combined for multiplex sequencing on an Illumina HiSeq 4000 System (2×150 bp, paired-end, >20×10^6 reads per sample). The data of normalized genes read counts were analyzed using fold change and t test. The Differentially expressed genes (DEGs) were collected for the signaling pathways enrichment by Funrich software 3.1.3. The gene sets were from MSigDB database (Broad Institute). GSEA was performed using GSEA version 3.0 in KEGG gene sets category online, with the following parameters: n=1,000 permutations, where p-adjust <0.05, and FDR <0.05 were considered significant.

A further data set in a line: In vivo toxicity studies. Set-up: species or system FVB/N mice. Conditions: 10 mg kg^−1, iv. How it is done: In vivo toxicity studies. The toxicity of BAQ NPs was investigated on female FVB/N mice via iv injection. Mice were administrated with various concentrations (10 mg kg^−1, 20 mg kg^−1 or 40 mg kg^−1) of Lys05, Liposomes@Lys05, BAQ12 NPs, and BAQ13 NPs every two days. The status of mice was monitored every day and their body weight was recorded every two days. Blood samples were collected and sent to the UCD Comparative Pathology Laboratory for tests of complete blood count (CBC) and serum chemistry.

The next data set concerns Red blood cells. Description: pH-dependent haemolysis test. Format: cell-based. Conditions: whole pH range, same concentration (50 μM, 4 h).
For data set [2], the system named is HT29 tumours. Description: HT29 xenograft model. Conditions: mice bearing HT29 tumours, treatment terminated on the 24th day.
Method: Animal model. To establish the subcutaneous xenograft models, 5×10^6 of MIA PaCa-2 cells, 2×10^6 of HT29 cells or 2×10^4 PCSCs suspended with Matrigel (Corning) and PBS mixture (1:1, volume ratio) were injected subcutaneously into the right flank of nude mice or NRG mice, respectively.
In vivo treatment schedule. The NRG mice bearing MIA PaCa-2 xenograft tumours (˜100 mm^3) were randomized into 5 groups (n=6), and then were subjected to iv injection every three days as indicated. […] The treatment on HT29 model was stopped on Day 24, and then the mice survival in each group was recorded, in which the mouse with a tumour larger than 1,000 mm^3 was considered dead. […] The tumour volume and body weight were recorded before drug administration every time. At the end of the treatment, mice were sacrificed and the tumours were collected for further analysis.
The next data set has as its system BXPC-3. Description: MTS cell viability assay. Format: cell-based, human. How it is done: (§1) Cell line and cell culture. The human pancreatic cancer cell lines (MIA PaCa-2, BXPC3, and PANC-1) were originally purchased from ATCC and were kindly provided by Dr. Shiro Urayama's Lab. HT29, HCT116, H460, MCF7, NIH/3T3, and IMR-90 cell lines were purchased from ATCC. Bone marrow cells were collected from the leg bone marrows of FVB/N mice. All the cells were cultured at 37° C. in a humidified atmosphere of 5% CO2/95% air using the corresponding medium supplemented with 10% fetal bovine serum, […] according to ATCC protocol. All the cell lines have been tested for mycoplasma contamination routinely.
(§2) Cell viability, cell growth and colony formation. Cell viability was assessed by the MTS assay. Briefly, cells in 96-well plates (4,000 cell per well) were treated as indicated, followed by the incubation with MTS regents for 4 h. OD values (490 nm) were determined via a microplate reader. Results were shown as the average cell viability calculated from the formula of [(ODtreat−ODblank)/(ODcontrol−ODblank)×100%]. Drug combination data were analyzed by Combenefit 2.02. In cell growth assay, cells in 6-well plates (50,000 cell per well) were treated as indicated and were counted manually every 24 h. Colony formation assay was also performed on 6-well plates with a starting density of 1,000-2,000 cells per well. After incubated as indicated for 10-20 days, cells were washed with PBS and stained with the solution of crystal violet and methanol for 20 min.
For orientation: Tetrazolium assays rely on reduction of a dye to a coloured formazan, in cell work by metabolically active cells.

For another data set, the system named is PANC-1. Description: MTS cell viability assay. The format is cell-based, human. How it is done:
as §1, §2

The test system of a further data set is MIA PaCa-2. In words: MTS cell viability assay. Conditions: 24 h; read-out: IC50 (μM) in the 24 h treatment MIA PaCa-2. The format is cell-based, human. On the procedure: as §1, §2
The next data set concerns Bone marrow cells. Description: MTS cell viability assay. The format is cell-based, FVB/N mice. Conditions: 48 h, non-cancerous cells; read-out: IC50 values from the 48 h MTS assay (μM) Bone marrow. How it is done:
as §1
as §2, with “After incubated as indicated for 10-20 days, cells were washed with PBS and stained with the solution of crystal violet and methanol for 20 min.” left out

For a further data set, the system named is HT29. In words: MTS cell viability assay. Conditions: 24 h; read-out: IC50 (μM) in the 24 h treatment HT29. The format is cell-based. How it is done:
as §1, §2

Another data set relates to MCF-7. Description: MTS cell viability assay. Format: cell-based. Conditions: 24 h; read-out: IC50 (μM) in the 24 h treatment MCF-7. On the procedure: as §1, §2
For the next data set, the system named is H460. In words: MTS cell viability assay. The format is cell-based. Conditions: 24 h; read-out: IC50 (μM) in the 24 h treatment H460. On the procedure:
as §1, §2

A further data set has as its system NIH/3T3. In words: MTS cell viability assay. Format: cell-based. Conditions: 48 h, non-cancerous cells; read-out: IC50 values from the 48 h MTS assay (μM) NIH/3T3. On the procedure:
as §1, §2

For a further data set, the system named is HCT116. Description: MTS cell viability assay. The format is cell-based. Conditions: 48 h; read-out: IC50 values from the 48 h MTS assay (μM) HCT116. How it is done:
as §1, §2

Another data set concerns IMR-90. Description: MTS cell viability assay. Format: cell-based. Conditions: 48 h, non-cancerous cells; read-out: IC50 values from the 48 h MTS assay (μM) IMR-90. How it is done:
as §1, §2

A short description of data set [3]: In vivo pharmacokinetic study. Details: species or system Sprague-Dawley rats. Conditions: rats, iv, DiD 0.5 mg kg^−1, plasma DiD fluorescence. On the procedure:
In vivo pharmacokinetic study. The jugular vein of female Sprague-Dawley rats (200-250 g) was implanted with a catheter for drug injection and blood collection (Harland, Indianapolis, IN, USA). Rats (n=3) were injected with free DiD, BAQ12 NPs@DiD (10:1, mass ratio) and BAQ13 NPs@DiD (10:1, mass ratio), respectively, which contained an equivalent dose of DiD (0.5 mg kg^−1). Blood samples were collected at the indicated time points and then were centrifuged to obtain the plasma. The plasma was diluted with DMSO (1:100), and the fluorescence intensity (λEx=595 nm, λEm=665 nm) was measured by a microplate reader (SpectraMax M2).

A short description of data set [4]: Drug loading using BAQ13 NPs. The format is physicochemical. How it is done: Preparation and characterization of BAQ ONNs. NPs were prepared through the re-precipitation method. BAQ derivatives in methanol were added dropwise into MilliQ water while stirring for 5 min (volume ratio, 1:10), and then homogenous NPs were obtained after rotary evaporation (40° C., 20 min), followed by the characterization with Zetasizer Nano ZS (Malvern). The TEM samples were prepared by dropping 0.5 mM NPs on carbon square mesh and dried naturally, which were then observed under the Talos L120C TEM (FEI) at an accelerating voltage of 80 kV. To determine the drug content in nanoformulations, the prepared drug-loaded NPs were cut off by centrifugal filter (ultracel-10 kDa, Millipore), and the absorbance of filtrate (diluted with DMSO, 1:10, volume ratio) was measured for calculation of drug concentrations.
Next investigation was whether liposome-like BAQ ONNs can encapsulate additional agents. Upon nanoprecipitation of BAQ13 and various agents, homogeneous NPs with monomodal size distributions spontaneously formed (Table 2 and FIG. 9G).

For data set [5], the system named is HT29 tumours. Description: In/ex vivo biodistribution, HT29 model. Details: species or system nude mice. Conditions: in vivo and ex vivo imaging, 12 h and 24 h post-injection. On the procedure: In/ex vivo biodistribution. Nude mice bearing the HT29 tumours were subjected to iv administration of BAQ13 NPs@DiD (10:1, mass ratio) at a dose of 1.0 mg kg^−1 DiD. In vivo imaging studies were performed at the corresponding time point. Organs (brain, heart, lung, liver, spleen, kidney, intestines, and muscle) and tumours were collected from mice for ex vivo imaging. Biodistribution of BAQ13 NPs@ NAPA+DiD (10/2.5/1.0 mg kg^−1, iv) was studied on NRG mice bearing PCSC tumours. Both in vivo and ex vivo imaging studies were performed as above.

Where [6] appears, read: BAQ13 NPs loaded with the drug or dye.

Method for Red blood cells: After centrifugation at 500×g for 5 min, the extent of haemolysis was spectrophotometrically determined according to the amount of haemoglobin in supernatants (540 nm). The haemolysis assay was used to assess the pH-dependent detergence ability and toxicity of NPs.

With `CN(CCNc1ccnc2cc(Cl)ccc12)CCNc1ccnc2cc(Cl)ccc12` [Lys05], in data set [1], the “pH plateau upon titration with HCl” value turned out to be 7.2. In the data set on MIA PaCa-2 tumours, the tumour growth result is on record as “did not display a therapeutic effect”. Moreover, the downregulated genes in the data set with MIA PaCa-2 cells worked out at 103. The compound also displayed an upregulated genes in the data set with MIA PaCa-2 cells of 62. Moreover, in the data set on MIA PaCa-2 cells (fold change≥2 and p value≤0.05), the “differentially expressed genes (DEGs)” value is 165. In addition, the “mortality after iv administration” value in the data set “In vivo toxicity studies” was “acute death of mice”. For the same compound, the “haemolytic response to pH” value in the data set on Red blood cells is “did not elicit observable haemolysis”. For the same compound, the “Median Survival” value in the data set with HT29 tumours [2] was determined as 28 days. Besides, the IC50 was determined as 7.8 ± 0.9 µM in the data set with BXPC-3 (24 h, read-out: IC50 (μM) in the 24 h treatment BXPC-3); 11.1 ± 1.7 µM in the data set on BXPC-3 (48 h, read-out: IC50 values from the 48 h MTS assay (μM) BXPC-3); 13.3 ± 2 µM with PANC-1 (24 h, read-out: IC50 (μM) in the 24 h treatment PANC-1); 10.8 ± 0.9 µM with PANC-1 (48 h, read-out: IC50 values from the 48 h MTS assay (μM) PANC-1); 16.7 ± 4.7 µM with MIA PaCa-2; 14 ± 1.1 µM in the data set with Bone marrow cells. The IC50 in the data set with HT29 amounted to 10.6 ± 3.4 µM; with MCF-7, 12.3 ± 0.7 µM; with H460, 11.1 ± 0.6 µM; in the data set on NIH/3T3, 12.6 ± 0.9 µM; in the data set on HCT116, 8 ± 0.7 µM; with IMR-90, 15.5 ± 2.5 µM.
On to `CCCCCCCCCCCCCCCCCCN1C(=CC=CC=CC2=[N+](CCCCCCCCCCCCCCCCCC)c3ccccc3C2(C)C)C(C)(C)c2ccccc21.[O-][Cl+3]([O-])([O-])[O-]` [Free DiD, 1,1′-dioctadecyl-3,3,3′,3′-tetramethylindodicarbocyanine perchlorate], for which the “T1/2” value in [3] is 48 min. In data set [4] (setting [6]), this compound came in with a PDI of 0.1 and a Size/diameter of 120 nm. The Encapsulation efficiency in data set [4] (drug or dye loaded in BAQ13 NPs) is 100%. Moreover, the Drug-loading content in [4] (drug or dye loaded in BAQ13 NPs, mass ratio) worked out at 50%. For the same compound, the “biodistribution of fluorescence signals” value in the data set with HT29 tumours [5] is “high signals in the lungs, rather than in the tumour sites”.
